Experimental findings from patent US10590101B2, “Benzo-N-hydroxy amide compounds having antitumor activity” (ITALFARMACO SPA, priority 2016, dated 2020) are described below.

One data set relates to HCT116 cells. Put plainly: Cytotoxicity in vitro, HCT116 (CellTiter 96 Aqueous One Solution). The class given is cell-based, human. Conditions: cis-form vs trans-form. The source says: The compounds of the present invention are small molecules of formula (I), characterised by the presence of a metal chelating moiety, the benzohydroxamate, an α-aminoacidic N-acylated central core and an α,β-unsaturation at the acyl-moiety. This particular structural feature seems responsible for the high inhibitory activity on cancer stem cell lines and on HCT116 cells (ATCC CCL-247), a human colorectal carcinoma cell line widely used in cancer biology both in vitro and in vivo (Botchkina Cancer Genom Proteom 6, 19-30, 2009; Yeung PNAS 107, 3722-3727, 2010).
The cytotoxicity activity was evaluated as follows: • Pre-B leukemia cell line 697 was seeded at 2×10^5 c/well; • Colon carcinoma cell lines HCT116, HT29 and COLO2015 were seeded at 4×10^3, 4×10^3 and 10×10^3 c/well respectively; • Primary human kidney cells were seeded at 1.5×10^3 and 6.5×10^3 in two separate experiments; • Human PBMC were seeded at 5×10^5 c/well; • Colon cancer stem cells (CSC) were seeded at 3×10^3;
Testing compounds were added after 24 h and incubated for 72 h (48 h for 697 cell line). The concentrations of molecules ranged from 10000 nM to 1.5 nM (10000 to 1 nM for 697 cell line). The cytotoxic activity of compounds was evaluated using the CellTiter 96® Aqueous One Solution Cell Proliferation Assay (Promega) which measures the functionality of mitochondria according to manufacturer's instructions. For Colon cancer stem cells viability was determined with CellTiter-Glo Luminescent cell viability assay (Promega).
The activity of compounds at any dose is calculated as percentage of inhibition versus vehicle-treated control (=0). The IC50s are extrapolated from the inhibition dose/response curve using GraphPad Prism program.

Data set [1] in a line: Force degradation test (chemical stability). Type of data set: physicochemical.

For `O=C(/C=C\c1ccccc1)N[C@@H](Cc1ccccc1)C(=O)Nc1ccc(C(=O)NO)cc1` [Compound 5DZ, (S,Z)—N-hydroxy-4-(3-phenyl-2-(3-phenylacrylamido)propanamido)benzamide], the “potency on HCT116 cells compared with the trans-form” value in the data set on HCT116 cells is reported as “less potent”. For the same compound, in data set [1] (15 days at 80° C.), the “stability at high temperatures” value was “little less stable”. The “stability at low pH” value in data set [1] (15 days at pH 2) is on record as “definitely less stable”. In addition, the “chemical stability compared with the trans” value in data set [1] (cis-form vs trans) was “chemically less stable”.
